Measured values reported in patent US20050186137A1, “Novelty-induced hypophagia-based assays for identifying agents to treat anxiety and depression” (priority 2003, published 2005).

Key:
BALB/cJ mice = assay: Prepulse inhibition of startle; assay type: in vivo, mouse
Method: For chronic fluoxetine studies in BALB/cJ mice, 60 male BALB/cJ mice were tested in the OF for 30 min on days 19 or 20 of chronic fluoxetine treatment. Mice were then pretested and tested in the modified FST on days 21 and 22, respectively. Animals were then allowed to adapt to being singly housed, and were trained for NIH on days 25-27. Home cage and novel cage testing occurred on days 28 and 29, respectively. Mice were then assessed for PPI on days 34 or 35.
Studies of subchronic fluoxetine were conducted using separate groups of 60 male BALB/cJ mice to prevent fluoxetine treatment from exceeding one week. One group was tested in the OF after one day of subchronic fluoxetine treatment. Mice were then pretested after 6 and tested after 7 days of subchronic fluoxetine treatment in the modified FST. A second group of BALB/cJ mice began fluoxetine treatment after being singly housed. They were then tested in the NIH test after 4 (home) and 5 (novel) days of subchronic fluoxetine treatment. A third group was tested for PPI after one or two days of subchronic fluoxetine treatment.
Prepulse Inhibition: Startle experiments were performed in MED-Associates chambers. Nonrestrictive Plexiglas cylinders 5 cm in diameter rested on a Plexiglas platform with a transducer amplifier. The sound-dampening isolation chambers were ventilated, well-lit, and equipped with an acoustic stimulator. Data acquisition was performed using Med-Associates software.
Five different trial types were presented in the test session: a 40-msec broadband 120 dB burst (PULSE ALONE trial); three different PREPULSE+PULSE trials in which 20-msec long 3 dB (pp3), 6 dB (pp6), or 12 dB (pp12) stimuli above a 70 dB background preceded the 120 dB pulse by 100 msec (onset to onset), and a NO STIMULUS trial, in which only the background noise was presented. Trials were presented in a pseudo-random order. A variable interval of 10-20 seconds separated trials.
The test session consisted of 62 test trials. The session began with a 10 min acclimation period, followed by four consecutive blocks of test trials. Blocks one and four consisted of six consecutive PULSE ALONE trials, while blocks two and three contained six PULSE ALONE trials, five pp3+p120 trials, five pp6+p120 trials, five pp12+p120 trials, and four NO STIMULUS trials. Analyses were performed using average values for each trial type.
Prepulse Inhibition: PPI was calculated as the averaged startle magnitude caused by PULSE ALONE trials from blocks two and three, minus the averaged startle magnitude caused by the prepulse-pulse trials, all divided by the averaged PULSE ALONE values from blocks two and three. The resulting value was multiplied by 100 and presented as a percent PPI value. Four-factor ANOVAs with fluoxetine and RU24969 as between subjects factors and prepulse intensity and block as within subjects variables assessed percent PPI levels. Interactions were resolved using post-hoc ANOVAs with adjusted p-values, and/or Newman-Keuls post-hoc tests.

animals = animals without drug withdrawal or chronic stress; low dose fluoxetine; cited from earlier work

SMILES	PPI (BALB/cJ mice; 10 mg/kg RU24969 in mice treated subchronically with fluoxetine (1-2 days))	Startle reactivity (blocks two and three) (BALB/cJ mice; 10 mg/kg/day RU24969, chronic fluoxetine study)	PPI (BALB/cJ mice; acute 10 mg/kg RU24969 i.p. in control mice (no fluoxetine), 3, 6, 12 dB prepulse intensities)	startle reactivity in the second and third blocks (BALB/cJ mice; subchronic fluoxetine study (1-2 days), 10 mg/kg RU24969)	intracranial self-stimulation reward thresholds (animals)
COc1ccc2[nH]cc(C3=CCNCC3)c2c1 [RU24969, 5-methoxy-3(1,2,3,6)tetrahydropyridin-4-yl-1H-indole]	disrupted PPI at each prepulse intensity	increased overall	disrupted PPI in control mice	no effects	–
CNCCCN1c2ccccc2CCc2ccccc21 [desmethylimipramine]	–	–	–	–	no effect
